In ChEMBL document CHEMBL5584358, “Fungal Coculture of Herpotrichia sp. and Trametes versicolor Induces Production of Diverse Metabolites with Anti-Parkinson's Neuroprotective Activity” (J Nat Prod, 2024):

Assays:
PC-12 [1] = experiment: Neuroprotective activity against MPP+-induced rat PC12 cell death assessed as upregulation of Tars2 gene expression at 1 to 10 uM preincubated for 1 hr followed by MPP+ addition and measured after 24 hrs by RNA sequencing analysis relative to control; type: functional; settings: dose 1-10 µM; time 25 hrs
PC-12 [2] = experiment: Neuroprotective activity against MPP+-induced rat PC12 cell death assessed as downregulation of Tnfrsf10b gene expression at 1 to 10 uM preincubated for 1 hr followed by MPP+ addition and measured after 24 hrs by RNA sequencing analysis relative to control; type: functional; settings: dose 1-10 µM; time 25 hrs
PC-12 [3] = experiment: Neuroprotective activity against MPP+-induced rat PC12 cell death assessed as upregulation of Stat6 gene expression at 1 to 10 uM preincubated for 1 hr followed by MPP+ addition and measured after 24 hrs by RNA sequencing analysis relative to control; type: functional; settings: dose 1-10 µM; time 25 hrs
PC-12 [4] = experiment: Neuroprotective activity against MPP+-induced rat PC12 cell death assessed as upregulation of Prkce gene expression at 1 to 10 uM preincubated for 1 hr followed by MPP+ addition and measured after 24 hrs by RNA sequencing analysis relative to control; type: functional; settings: dose 1-10 µM; time 25 hrs
PC-12 [5] = experiment: Neuroprotective activity against MPP+-induced rat PC12 cell death assessed as downregulation of Cdk6 gene expression at 1 to 10 uM preincubated for 1 hr followed by MPP+ addition and measured after 24 hrs by RNA sequencing analysis relative to control; type: functional; settings: dose 1-10 µM; time 25 hrs
PC-12 [6] = experiment: Neuroprotective activity against MPP+-induced rat PC12 cell death assessed as upregulation of Mmp2 gene expression at 1 to 10 uM preincubated for 1 hr followed by MPP+ addition and measured after 24 hrs by RNA sequencing analysis relative to control; type: functional; settings: dose 1-10 µM; time 25 hrs
PC-12 [7] = experiment: Neuroprotective activity against MPP+-induced rat PC12 cell death assessed as upregulation of Ets1 gene expression at 1 to 10 uM preincubated for 1 hr followed by MPP+ addition and measured after 24 hrs by RNA sequencing analysis relative to control; type: functional; settings: dose 1-10 µM; time 25 hrs
PC-12 [8] = experiment: Neuroprotective activity against MPP+-induced rat PC12 cell death assessed as upregulation of Bach2 gene expression at 1 to 10 uM preincubated for 1 hr followed by MPP+ addition and measured after 24 hrs by RNA sequencing analysis relative to control; type: functional; settings: dose 1-10 µM; time 25 hrs
PC-12 [9] = experiment: Neuroprotective activity against MPP+-induced rat PC12 cell death assessed as downregulation of Nlrp1a gene expression at 1 to 10 uM preincubated for 1 hr followed by MPP+ addition and measured after 24 hrs by RNA sequencing analysis relative to control; type: functional; settings: dose 1-10 µM; time 25 hrs
PC-12 [10] = experiment: Neuroprotective activity against MPP+-induced rat PC12 cell death assessed as increase in cell viability preincubated for 1 hr followed by MPP+ addition and measured after 24 hrs by CCK-8 assay; type: functional, cell-based; settings: dose 1-20 µM, time 25.0 hrs
PC-12 [11] = experiment: Neuroprotective activity against MPP+-induced rat PC12 cell death assessed as upregulation of Rora gene expression at 1 to 10 uM preincubated for 1 hr followed by MPP+ addition and measured after 24 hrs by RNA sequencing analysis relative to control; type: functional; settings: dose 1-10 µM; time 25 hrs
PC-12 [12] = experiment: Neuroprotective activity against MPP+-induced rat PC12 cell death assessed as downregulation of Cntf gene expression at 1 to 10 uM preincubated for 1 hr followed by MPP+ addition and measured after 24 hrs by RNA sequencing analysis relative to control; type: functional; settings: dose 1-10 µM; time 25 hrs
PC-12 [13] = experiment: Neuroprotective activity against MPP+-induced rat PC12 cell death assessed as downregulation of Anxa1 gene expression at 1 to 10 uM preincubated for 1 hr followed by MPP+ addition and measured after 24 hrs by RNA sequencing analysis relative to control; type: functional; settings: dose 1-10 µM; time 25 hrs
PC-12 [14] = experiment: Neuroprotective activity against MPP+-induced rat PC12 cell death assessed as upregulation of Plau gene expression at 1 to 10 uM preincubated for 1 hr followed by MPP+ addition and measured after 24 hrs by RNA sequencing analysis relative to control; type: functional; settings: dose 1-10 µM; time 25 hrs
PC-12 [15] = experiment: Neuroprotective activity against MPP+-induced rat PC12 cell death assessed as upregulation of Faslg gene expression at 1 to 10 uM preincubated for 1 hr followed by MPP+ addition and measured after 24 hrs by RNA sequencing analysis relative to control; type: functional; settings: dose 1-10 µM; time 25 hrs
PC-12 [16] = experiment: Neuroprotective activity against MPP+-induced rat PC12 cell death assessed as downregulation of Ren gene expression at 1 to 10 uM preincubated for 1 hr followed by MPP+ addition and measured after 24 hrs by RNA sequencing analysis relative to control; type: functional; settings: dose 1-10 µM; time 25 hrs
PC-12 [17] = experiment: Neuroprotective activity against MPP+-induced rat PC12 cell death assessed as upregulation of Tnr gene expression at 1 to 10 uM preincubated for 1 hr followed by MPP+ addition and measured after 24 hrs by RNA sequencing analysis relative to control; type: functional; settings: dose 1-10 µM; time 25 hrs
PC-12 [18] = experiment: Neuroprotective activity against MPP+-induced rat PC12 cell death assessed as downregulation of Tnfaip8L2 gene expression at 1 to 10 uM preincubated for 1 hr followed by MPP+ addition and measured after 24 hrs by RNA sequencing analysis relative to control; type: functional; settings: dose 1-10 µM; time 25 hrs
PC-12 [19] = experiment: Neuroprotective activity against MPP+-induced rat PC12 cell death assessed as upregulation of Nat1 gene expression at 1 to 10 uM preincubated for 1 hr followed by MPP+ addition and measured after 24 hrs by RNA sequencing analysis relative to control; type: functional; settings: dose 1-10 µM; time 25 hrs
PC-12 [20] = experiment: Neuroprotective activity against MPP+-induced rat PC12 cell death assessed as downregulation of Unc13d gene expression at 1 to 10 uM preincubated for 1 hr followed by MPP+ addition and measured after 24 hrs by RNA sequencing analysis relative to control; type: functional; settings: dose 1-10 µM; time 25 hrs
PC-12 [21] = experiment: Neuroprotective activity against MPP+-induced rat PC12 cell death assessed as upregulation of Des gene expression at 1 to 10 uM preincubated for 1 hr followed by MPP+ addition and measured after 24 hrs by RNA sequencing analysis relative to control; type: functional; settings: dose 1-10 µM; time 25 hrs
PC-12 [22] = experiment: Neuroprotective activity against MPP+-induced rat PC12 cell death assessed as upregulation of Rab5al1 gene expression at 1 to 10 uM preincubated for 1 hr followed by MPP+ addition and measured after 24 hrs by RNA sequencing analysis relative to control; type: functional; settings: dose 1-10 µM; time 25 hrs
PC-12 [23] = experiment: Neuroprotective activity against MPP+-induced rat PC12 cell death assessed as downregulation of Nr3c2 gene expression at 1 to 10 uM preincubated for 1 hr followed by MPP+ addition and measured after 24 hrs by RNA sequencing analysis relative to control; type: functional; settings: dose 1-10 µM; time 25 hrs
PC-12 [24] = experiment: Neuroprotective activity against MPP+-induced rat PC12 cell death assessed as upregulation of Ppial4d gene expression at 1 to 10 uM preincubated for 1 hr followed by MPP+ addition and measured after 24 hrs by RNA sequencing analysis relative to control; type: functional; settings: dose 1-10 µM; time 25 hrs
PC-12 [25] = experiment: Neuroprotective activity against MPP+-induced rat PC12 cell death assessed as upregulation of Cryab gene expression at 1 to 10 uM preincubated for 1 hr followed by MPP+ addition and measured after 24 hrs by RNA sequencing analysis relative to control; type: functional; settings: dose 1-10 µM; time 25 hrs
PC-12 [26] = experiment: Neuroprotective activity against MPP+-induced rat PC12 cell death assessed as downregulation of Prorp gene expression at 1 to 10 uM preincubated for 1 hr followed by MPP+ addition and measured after 24 hrs by RNA sequencing analysis relative to control; type: functional; settings: dose 1-10 µM; time 25 hrs
PC-12 [27] = experiment: Neuroprotective activity against MPP+-induced rat PC12 cell death assessed as upregulation of Gpt gene expression at 1 to 10 uM preincubated for 1 hr followed by MPP+ addition and measured after 24 hrs by RNA sequencing analysis relative to control; type: functional; settings: dose 1-10 µM; time 25 hrs

For C=C1CC[C@H]2C(C)(C)[C@@H](O)C[C@@H](O)[C@]2(C)[C@H]1CO, the log2FC (PC-12 [1]) was greater than 0.4, the log2FC (PC-12 [2]) was greater than 0.4 and the log2FC (PC-12 [3]) was greater than 0.4. The log2FC (PC-12 [4]) was greater than 0.4, the log2FC (PC-12 [5]) was greater than 0.4 and the log2FC (PC-12 [6]) was greater than 0.4. The log2FC (PC-12 [7]) was greater than 0.4, the log2FC (PC-12 [8]) was greater than 0.4 and the log2FC (PC-12 [9]) was greater than 0.4. The Activity (PC-12 [10]) was “Dose-Dependent Effect”, the log2FC (PC-12 [11]) was greater than 0.4 and the log2FC (PC-12 [12]) was greater than 0.4. For the same compound, the log2FC (PC-12 [13]) was greater than 0.4, the log2FC (PC-12 [14]) was greater than 0.4 and the log2FC (PC-12 [15]) was greater than 0.4. For the same compound, the log2FC (PC-12 [16]) was greater than 0.4, the log2FC (PC-12 [17]) was greater than 0.4 and the log2FC (PC-12 [18]) was greater than 0.4. It also gave a log2FC (PC-12 [19]) greater than 0.4, a log2FC (PC-12 [20]) greater than 0.4 and a log2FC (PC-12 [21]) greater than 0.4. For the same compound, the log2FC (PC-12 [22]) was greater than 0.4, the log2FC (PC-12 [23]) was greater than 0.4 and the log2FC (PC-12 [24]) was greater than 0.4. It also gave a log2FC (PC-12 [25]) greater than 0.4, a log2FC (PC-12 [26]) greater than 0.4 and a log2FC (PC-12 [27]) greater than 0.4.
